Here are results for eleven compounds from US11648254B2 (Kumquat Biosciences Inc., priority 2021, dated 2023).

pIC50: −log10 of the molar value. Read-outs that look alike come from different tables or passages of the source.

One may read the pIC50 as the negative decadic logarithm of the IC50, by convention in mol/L.

Data set [1] concerns the target SOS1 (Homo sapiens (Human), UniProt Q07889). As to the kind of experiment: Ras-SOS interaction assay (HTRF). It is filed as biochemical.
Data set [2] is described as follows: Metabolic (microsomal) stability assay. It is filed as in vitro ADME. Particulars: mouse liver microsomes, T1/2; read-out: DMPK-invitro-metabolic Stability (Mouse T1/2). The text has this: Example 12: Metabolic (Microsomal) Stability Assay
In data set [3] the test system is NCI-H1975 cells (EGFR T790M L858R). As to the kind of experiment: EGFR-SOS cellular inhibition assay (CellTiter-Glo, 3D). It is filed as cell-based. As to conditions: Homo sapiens. Background: Cellular ATP, detected with luciferase, serves as a proxy for viable cell number.
Data set [4] relates to ERK phosphorylation (p-ERK 1/2 Thr202/Tyr204) in MIA PaCa-2 or NCI-H1975 cells. In words: ERK phosphorylation assay (AlphaLISA p-ERK 1/2). It is filed as cell-based. Particulars: MIA PaCa-2 cells or EGFR mutant NCI-H1975 cells; read-out: IC50 for the inhibition of ERK phosphorylation. As to the method: MIA PaCa-2 cells (ATCC CRL-1420) expressing K-Ras G12C is grown in DMEM/Ham's F12 medium supplemented with 10% fetal calf serum, glutamine and ˜2.5% horse serum. Alternatively, other cell lines with aberrant Ras signaling output can be utilized. Non-limiting exemplary cell lines include NCI-H358 and H1975. Cells are plated in 96-well plates at a concentration of 40,000 cells/well and allowed to attach for at least 8 hours. Following, diluted solutions of test inhibitor compounds are added to the cell culture. After ˜2 hours of incubation, the medium is removed and lysis buffer from AlphaLISA® SureFire® Ultra™ p-ERK 1/2 (Thr202/Tyr204) assay kit (Perkin Elmer ALSU-PERK-A10K) is added to the cells. The plate is agitated for 10 min at room temperature and 10 μL of the lysate is transferred to a 384-well Optiplate™ (Perkin Elmer) for assay. Thereafter ˜5 μL of Acceptor Mix from the p-ERK AlphaLISA assay kit is added to wells and plate is sealed with adhesive film. The samples are incubated for one hour at room temperature. Following, 5 μL of Donor Mix is added to the wells and plate is re-sealed with adhesive film, and incubated for one hour at room temperature. The plate is then read on a multimode microplate reader (e.g., SPARK©Tecan) equipped with Alpha detection module. The data can be fitted to four-parameter dose-response curve using Prism version 9 (GraphPad) to calculate an IC50 for the inhibition of ERK phosphorylation. […] 355, 332, 366, 216, 264, 356, 266, in an ERK phosphorylation assay utilizing either MIA PaCa-2 cells (ATCC CRL-1420) or EGFR mutant cell line (NCI-H1975 (ATCC CRL-5908)).

In data set [5] the test system is MIA PaCa-2 cells (K-Ras G12C). As to the kind of experiment: Ras-SOS cellular growth inhibition assay (CellTiter-Glo, 3D). It is filed as cell-based. Particulars: Homo sapiens. The procedure, abridged: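 Growth read by CellTiter-Glo luminescence about 5 days after dosing with 3-fold dilutions (9 points), added one day post-seeding. Cells: MIA PaCa-2, 3D culture on ultra-low-attachment surface, medium DMEM/Ham's F12 plus 10% FCS and 2.5% horse serum; IC50 by four-parameter fit.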

Data set [6] can be described thus: In vitro plasma protein binding (PPB). It is filed as in vitro ADME. As to conditions: percentage of free/unbound compound.
The mark [7] stands for this setting: K-RasG13D utilized, read-out: IC50 inhibition of SOS.
The mark [8] stands for this setting: K-RasG13D, read-out: IC50 value against SOS1.
The mark [9] stands for this setting: 120 h, NCI-H1975, 3D proliferation, about 5 days, read-out: Bio-Cell-Prolif-3D (H1975 IC50).
The mark [10] stands for this setting: NCI-H1975, EGFR T790M L858R, read-out: IC50 in inhibiting growth of NCI-H1975 cell line.
Where [11] appears, read: MIA PaCa-2, 120 h, MIA PaCa-2, 3D proliferation, about 5 days, read-out: Bio-Cell-Prolif-3D (MiaPaca2 IC50).
[12] abbreviates: MIA PaCa-2, MIA PaCa-2, read-out: IC50 in inhibiting MIA PaCa-2 cell growth.

Chain of SOS1 (Q07889 564-1049): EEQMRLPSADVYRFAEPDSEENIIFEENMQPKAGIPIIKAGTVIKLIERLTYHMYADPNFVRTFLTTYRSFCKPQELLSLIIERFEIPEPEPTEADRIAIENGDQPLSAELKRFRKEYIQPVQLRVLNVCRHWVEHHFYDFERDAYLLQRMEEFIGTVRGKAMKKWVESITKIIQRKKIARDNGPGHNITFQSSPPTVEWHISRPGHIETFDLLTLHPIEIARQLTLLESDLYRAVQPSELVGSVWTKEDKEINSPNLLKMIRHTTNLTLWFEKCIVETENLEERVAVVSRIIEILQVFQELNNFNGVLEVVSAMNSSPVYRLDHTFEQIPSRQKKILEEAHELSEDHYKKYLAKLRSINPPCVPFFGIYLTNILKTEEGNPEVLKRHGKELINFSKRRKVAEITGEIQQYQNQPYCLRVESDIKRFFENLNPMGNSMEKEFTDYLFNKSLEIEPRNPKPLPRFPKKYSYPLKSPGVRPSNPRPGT

As for `COc1nc2ncnc(N[C@H](C)c3cccc(C(F)(F)[C@@H](C)O)c3)c2cc1C1(C#N)CC1` [Compound 264, 1-(4-(((R)-1-(3-((R)-1,1-difluoro-2-hydroxypropyl)phenyl)ethyl)amino)-7-methoxypyrido[2,3-d]pyrimidin-6-yl)cyclopropane-1-carbonitrile], the pIC50 in data set [1] (setting [7]) is greater than 7.00; in data set [1] (setting [8]), greater than 7.30; in data set [3] (setting [9]) it was no less than 6.00; in data set [3] (setting [10]) it was greater than 6.30; in data set [4], greater than 6.00; in data set [5] (setting [11]), no less than 6.00. Moreover, the pIC50 in data set [5] (setting [12]) was greater than 6.30. The half-life in data set [2] was found to be 0.918 h. For the same compound, the “DMPK-invitro-PPB (Mouse Unbound) [%]” value in data set [6] is recorded as 4.94%.

As to `COc1nc2nc(C)nc(N[C@H](C)c3cccc(C(F)(F)[C@H](C)O)c3)c2cc1C1(C#N)CC1` [Compound 216, 1-(4-(((R)-1-(3-((S)-1,1-difluoro-2-hydroxypropyl)phenyl)ethyl)amino)-7-methoxy-2-methylpyrido[2,3-d]pyrimidin-6-yl)cyclopropane-1-carbonitrile], the negative logarithm of the IC50 (pIC50) in data set [1] (setting [7]) was greater than 7.00; in data set [1] (setting [8]), greater than 7.30; in data set [3] (setting [9]), no less than 6.00; in data set [3] (setting [10]) it was greater than 6.30; in data set [4], greater than 6.00; in data set [5] (setting [11]), no less than 6.00. In data set [5] (setting [12]), the negative logarithm of the IC50 (pIC50) is greater than 6.30.

As to `COc1nc2ncnc(N[C@H](C)c3cccc(C(F)(F)C(C)(C)O)c3)c2cc1C1(C#N)CC1` [Compound 355, (R)-1-(4-((1-(3-(1,1-difluoro-2-hydroxy-2-methylpropyl)phenyl)ethyl)amino)-7-methoxypyrido[2,3-d]pyrimidin-6-yl)cyclopropane-1-carbonitrile], the pIC50 in data set [1] (setting [7]) was greater than 7.00; in data set [1] (setting [8]) it was greater than 7.30; in data set [3] (setting [9]) it was no less than 6.00; in data set [3] (setting [10]), greater than 6.30; in data set [4], greater than 6.00; in data set [5] (setting [11]), no less than 6.00. For the same compound, the pIC50 in data set [5] (setting [12]) is greater than 6.30. The half-life in data set [2] is greater than 3.33 h. Also, the “DMPK-invitro-PPB (Mouse Unbound) [%]” value in data set [6] came out at 0.89%.

Consider `COc1nc2nc(C)nc(N[C@H](C)c3cccc(C(F)(F)[C@@H](C)O)c3F)c2cc1C1(C#N)CC1` [Compound 332, 1-(4-(((R)-1-(3-((R)-1,1-difluoro-2-hydroxypropyl)-2-fluorophenyl)ethyl)amino)-7-methoxy-2-methylpyrido[2,3-d]pyrimidin-6-yl)cyclopropane-1-carbonitrile], for which the pIC50 in data set [1] (setting [7]) is greater than 7.00; in data set [1] (setting [8]), greater than 7.30; in data set [3] (setting [9]), no less than 6.00; in data set [3] (setting [10]), greater than 6.30; in data set [4] it was greater than 6.00; in data set [5] (setting [11]), no less than 6.00. The pIC50 in data set [5] (setting [12]) was greater than 6.30. The half-life in data set [2] was 0.502 h. Besides, in data set [6], the “DMPK-invitro-PPB (Mouse Unbound) [%]” value is 0.3%.

With `COc1nc2nc(C)nc(N[C@H](C)c3cccc(C(F)(F)[C@H](C)O)c3F)c2cc1C1(C#N)CC1` [Compound 256, 1-(4-(((R)-1-(3-((S)-1,1-difluoro-2-hydroxypropyl)-2-fluorophenyl)ethyl)amino)-7-methoxy-2-methylpyrido[2,3-d]pyrimidin-6-yl)cyclopropane-1-carbonitrile], the pIC50 in data set [1] (setting [7]) was greater than 7.00; in data set [1] (setting [8]) it was greater than 7.30; in data set [3] (setting [9]) it was no less than 6.00; in data set [3] (setting [10]), greater than 6.30; in data set [5] (setting [11]), no less than 6.00; in data set [5] (setting [12]), greater than 6.30. For the same compound, the half-life in data set [2] was 0.62 h. The “DMPK-invitro-PPB (Mouse Unbound) [%]” value in data set [6] came to 0.77%.

For `COc1nc2nc(C)nc(N[C@H](C)c3cccc(C(F)(F)C(C)(C)O)c3F)c2cc1C1(C#N)CC1` [Compound 207, (R)-1-(4-((1-(3-(1,1-difluoro-2-hydroxy-2-methylpropyl)-2-fluorophenyl)ethyl)amino)-7-methoxy-2-methylpyrido[2,3-d]pyrimidin-6-yl)cyclopropane-1-carbonitrile], the pIC50 in data set [1] (setting [7]) is greater than 7.00; in data set [1] (setting [8]), greater than 7.30; in data set [3] (setting [9]) it was no less than 6.00; in data set [3] (setting [10]) it was greater than 6.30; in data set [5] (setting [11]), no less than 6.00. In data set [2], the half-life was greater than 3.33 h. For the same compound, in data set [6], the “DMPK-invitro-PPB (Mouse Unbound) [%]” value is 0.06%.

As to `COc1nc2ncnc(N[C@H](C)c3cccc(C(F)(F)[C@H](C)O)c3F)c2cc1C1(C#N)CC1` [Compound 327, 1-(4-(((R)-1-(3-((S)-1,1-difluoro-2-hydroxypropyl)-2-fluorophenyl)ethyl)amino)-7-methoxypyrido[2,3-d]pyrimidin-6-yl)cyclopropane-1-carbonitrile], the pIC50 in data set [1] (setting [7]) was greater than 7.00; in data set [1] (setting [8]), greater than 7.30; in data set [3] (setting [9]), no less than 6.00; in data set [3] (setting [10]), greater than 6.30; in data set [5] (setting [11]) it was no less than 6.00; in data set [5] (setting [12]), greater than 6.30. The half-life in data set [2] was found to be 2.18 h. Further, in data set [6], the “DMPK-invitro-PPB (Mouse Unbound) [%]” value came out at 2.34%.

With `Cc1nc(N[C@H](C)c2cccc(C(F)(F)F)c2F)c2cc(C3(C#N)CC3)c(Cl)nc2n1` [Compound 300, (R)-1-(7-chloro-4-((1-(2-fluoro-3-(trifluoromethyl)phenyl)ethyl)amino)-2-methylpyrido[2,3-d]pyrimidin-6-yl)cyclopropane-1-carbonitrile], the pIC50 in data set [1] (setting [7]) is greater than 7.00; in data set [3] (setting [9]), no less than 6.00; in data set [5] (setting [11]), no less than 6.00. Moreover, in data set [2], the half-life turned out to be 1.18 h. For the same compound, in data set [6], the “DMPK-invitro-PPB (Mouse Unbound) [%]” value is reported as 0.47%.

With `COc1nc2ncnc(N[C@H](C)c3cccc(C(F)(F)[C@@H](C)O)c3F)c2cc1C1(C#N)CC1` [Compound 329, 1-(4-(((R)-1-(3-((R)-1,1-difluoro-2-hydroxypropyl)-2-fluorophenyl)ethyl)amino)-7-methoxypyrido[2,3-d]pyrimidin-6-yl)cyclopropane-1-carbonitrile], the pIC50 in data set [1] (setting [7]) is greater than 7.00; in data set [1] (setting [8]), greater than 7.30; in data set [3] (setting [9]), no less than 6.00; in data set [3] (setting [10]), greater than 6.30; in data set [5] (setting [11]), no less than 6.00; in data set [5] (setting [12]), greater than 6.30. The half-life in data set [2] is 2 h. Also, in data set [6], the “DMPK-invitro-PPB (Mouse Unbound) [%]” value came to 2.72%.

`COc1nc2ncnc(N[C@H](C)c3cccc(C(F)(F)[C@H](C)O)c3)c2cc1C1(C#N)CC1` [Compound 266, 1-(4-(((R)-1-(3-((S)-1,1-difluoro-2-hydroxypropyl)phenyl)ethyl)amino)-7-methoxypyrido[2,3-d]pyrimidin-6-yl)cyclopropane-1-carbonitrile]: the pIC50 is greater than 7.00 in data set [1] (setting [7]); greater than 7.30 in data set [1] (setting [8]); no less than 6.00 in data set [3] (setting [9]); greater than 6.30 in data set [3] (setting [10]); greater than 6.00 in data set [4]; no less than 6.00 in data set [5] (setting [11]). Besides, in data set [5] (setting [12]), the pIC50 is greater than 6.30.

Consider `C[C@@H](Nc1ncnc2nc(Cl)c(C3(C#N)CC3)cc12)c1cccc(C(F)(F)F)c1F` [Compound 354, (R)-1-(7-chloro-4-((1-(2-fluoro-3-(trifluoromethyl)phenyl)ethyl)amino)pyrido[2,3-d]pyrimidin-6-yl)cyclopropane-1-carbonitrile], for which the pIC50 is greater than 7.00 in data set [1] (setting [7]); no less than 6.00 in data set [3] (setting [9]); greater than 6.30 in data set [3] (setting [10]); no less than 6.00 in data set [5] (setting [11]); greater than 6.30 in data set [5] (setting [12]). Moreover, the half-life in data set [2] was greater than 3.33 h. For the same compound, in data set [6], the “DMPK-invitro-PPB (Mouse Unbound) [%]” value was 0.52%.
